Assay results reported in patent publication US12692238B2, “Substituted pyridazinone herbicides” (FMC CORPORATION, priority 2020, dated 2026).

Tests used:
Format in all cases: in vivo
[1] = system: foxtail, giant (giant foxtail, Setaria faberi); test: Test A postemergence, foxtail, giant; conditions: 10 days
Source text: (§1) Seeds of plant species selected from barnyardgrass (Echinochloa crus-galli), blackgrass (Alopecurus myosuroides), corn (Zea mays), foxtail, giant (giant foxtail, Setaria faberi), foxtail, green (green foxtail, Setaria viridis), goosegrass (Eleusine indica), kochia (Bassia scoparia), oat, wild (wild oat, Avena fatua), palmer amaranth (pigweed, palmer, Amaranthus palmeri), redroot pigweed (Amaranthus retroflexus), ragweed (common ragweed, Ambrosia artemisiifolia), ryegrass, Italian (Italian ryegrass, Lolium multiflorum), and soybean (Glycine max) were planted into a blend of loam soil and sand and treated preemergence with a directed soil spray using test chemicals formulated in a non-phytotoxic solvent mixture which included a surfactant.
(§2) At the same time, plants selected from these crop and weed species and also wheat (Triticum aestivum), galium (catchweed bedstraw, Galium aparine) and horseweed (Erigeron canadensis) were planted in pots containing the same blend of loam soil and sand and treated with postemergence applications of test chemicals formulated in the same manner. Plants ranged in height from 2 to 10 cm and were in the one- to two-leaf stage for the postemergence treatment. Treated plants and untreated controls were maintained in a greenhouse for 10 days, after which time all treated plants were compared to untreated controls and visually evaluated for injury. Plant response ratings, summarized in Table A, are based on a 0 to 100 scale where 0 is no effect and 100 is complete control. A dash (-) response means no test result.

[2] = system: ryegrass, Italian (Italian ryegrass, Lolium multiflorum); test: Test A postemergence, ryegrass, Italian; conditions: 10 days
How it was run: (§3)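 Both application timings shared one formulation: test chemical in non-phytotoxic solvent with surfactant. Preemergence used a directed soil spray at sowing, postemergence a spray on 2–10 cm seedlings. Untreated plants served as reference for 0–100 visual ratings after 10 days.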

corn (Zea mays) [3] = test: Test A postemergence, corn; conditions: 10 days
How it was run: as §3

[4] = system: palmer amaranth (pigweed, palmer, Amaranthus palmeri); test: Test A preemergence, palmer amaranth; conditions: 0 to 100 scale, 10 days
Source text: as §1, §2

[5] = system: foxtail, giant (giant foxtail, Setaria faberi); test: Test A preemergence, foxtail, giant; conditions: 0 to 100 scale, 10 days
Source text: as §1, §2

soybean (Glycine max) [6] = test: Test A postemergence, soybean; conditions: 10 days
Source text: as §1, §2

[7] = system: galium (catchweed bedstraw, Galium aparine); test: Test A postemergence, galium; conditions: 10 days
How it was run: as §3

[8] = system: goosegrass (Eleusine indica); test: Test A postemergence, goosegrass; conditions: 10 days
Source text: as §1, §2

[9] = system: sedge, umbrella (small-flower umbrella sedge, Cyperus difformis); test: Test B flooded paddy test, sedge, umbrella; conditions: 250 g ai/ha, Flood; visually evaluated after 10 to 14 days
How it was run: (§4)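 Water-applied treatment of 2-leaf plants in pots kept flooded at 3 cm. Visual control rating (0–100) against untreated plants after 10–14 greenhouse days.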

[10] = system: goosegrass (Eleusine indica); test: Test A preemergence, goosegrass; conditions: 0 to 100 scale, 10 days
Source text: as §1, §2

[11] = system: ragweed (common ragweed, Ambrosia artemisiifolia); test: Test A preemergence, ragweed; conditions: 0 to 100 scale, 10 days
How it was run: as §3

[12] = system: horseweed (Erigeron canadensis); test: Test A postemergence, horseweed; conditions: 10 days
Source text: as §1, §2

[13] = system: oat, wild (wild oat, Avena fatua); test: Test A preemergence, oat, wild; conditions: 0 to 100 scale, 10 days
Source text: as §1, §2

rice (Oryza sativa) = test: Test B flooded paddy test, rice; conditions: 250 g ai/ha, Flood; visually evaluated after 10 to 14 days
How it was run: as §4

[14] = system: wheat (Triticum aestivum); test: Test A preemergence, wheat; conditions: 125 g ai/ha, 0 to 100 scale, 10 days
[15] = system: oat, wild (wild oat, Avena fatua); test: Test A postemergence, oat, wild; conditions: 10 days
Source text: as §1, §2

[16] = system: ducksalad (Heteranthera limosa); test: Test B flooded paddy test, ducksalad; conditions: 250 g ai/ha, Flood; visually evaluated after 10 to 14 days
How it was run: as §4

[17] = system: blackgrass (Alopecurus myosuroides); test: Test A postemergence, blackgrass; conditions: 10 days
How it was run: as §3

[18] = system: ryegrass, Italian (Italian ryegrass, Lolium multiflorum); test: Test A preemergence, ryegrass, Italian; conditions: 0 to 100 scale, 10 days
How it was run: as §3

[19] = system: palmer amaranth (pigweed, palmer, Amaranthus palmeri); test: Test A postemergence, palmer amaranth; conditions: 10 days
Source text: as §1, §2

[20] = system: barnyardgrass (Echinochloa crus-galli); test: Test B flooded paddy test, barnyardgrass; conditions: 250 g ai/ha, Flood; visually evaluated after 10 to 14 days
How it was run: as §4

kochia (Bassia scoparia) [21] = test: Test A preemergence, kochia; conditions: 0 to 100 scale, 10 days
How it was run: as §3

soybean (Glycine max) [22] = test: Test A preemergence, soybean; conditions: 0 to 100 scale, 10 days
Source text: as §1, §2

[23] = system: ragweed (common ragweed, Ambrosia artemisiifolia); test: Test A postemergence, ragweed; conditions: 10 days
How it was run: as §3

[24] = system: blackgrass (Alopecurus myosuroides); test: Test A preemergence, blackgrass; conditions: 0 to 100 scale, 10 days
Source text: as §1, §2

[25] = system: wheat (Triticum aestivum); test: Test A postemergence, wheat; conditions: 10 days
How it was run: as §3

corn (Zea mays) [26] = test: Test A preemergence, corn; conditions: 0 to 100 scale, 10 days
Source text: as §1, §2

kochia (Bassia scoparia) [27] = test: Test A postemergence, kochia; conditions: 10 days
How it was run: as §3

[28] = 31 g ai/ha, postemergence, 0 to 100 scale (0 no effect, 100 complete control)
[29] = Postemergence, 125 g ai/ha, 0 to 100 scale

Cc1ccc2cc3ccc(F)cc3c(-c3c(OCOC(=O)C(C)(C)C)c(C)nn(C)c3=O)c2c1 [Compound 21]
Plant response rating, Foxtail, Giant [1, 28]: 90
Plant response rating, Foxtail, Giant [1, 29]: 100
Plant response rating, Ryegrass, Italian [2, 28]: 80
Plant response rating, Ryegrass, Italian [2, 29]: 100
Plant response rating, Corn (corn (Zea mays) [3]; [28]): 30
Plant response rating, Corn (corn (Zea mays) [3]; [29]): 40
Plant response rating, Pigweed, Palmer ([4]; 31 g ai/ha): 100
Plant response rating, Pigweed, Palmer ([4]; 125 g ai/ha): 100
Plant response rating, Foxtail, Giant ([5]; 31 g ai/ha): 80
Plant response rating, Foxtail, Giant ([5]; 125 g ai/ha): 100
Plant response rating, Soybean (soybean (Glycine max) [6]; [28]): 100
Plant response rating, Soybean (soybean (Glycine max) [6]; [29]): 100
Plant response rating, Galium [7, 28]: 100
Plant response rating, Galium [7, 29]: 100
Plant response rating, Goosegrass [8, 28]: 20
Plant response rating, Goosegrass [8, 29]: 30
Plant response rating, Sedge, Umbrella (0 to 100 scale where 0 is no effect and 100 is complete control) [9]: 100
Plant response rating, Goosegrass ([10]; 31 g ai/ha): 40
Plant response rating, Goosegrass ([10]; 125 g ai/ha): 60
Plant response rating, Ragweed ([11]; 31 g ai/ha): 50
Plant response rating, Ragweed ([11]; 125 g ai/ha): 90
Plant response rating, Horseweed [12, 28]: 100
Plant response rating, Horseweed [12, 29]: 100
Plant response rating, Oat, Wild ([13]; 31 g ai/ha): 0
Plant response rating, Oat, Wild ([13]; 125 g ai/ha): 40
Plant response rating, Rice (0 to 100 scale where 0 is no effect and 100 is complete control) (rice (Oryza sativa)): 60
Plant response rating, Wheat [14]: 0
Plant response rating, Oat, Wild [15, 28]: 10
Plant response rating, Oat, Wild [15, 29]: 40
Plant response rating, Ducksalad (0 to 100 scale where 0 is no effect and 100 is complete control) [16]: 100
Plant response rating, Blackgrass [17, 28]: 20
Plant response rating, Blackgrass [17, 29]: 20
Plant response rating, Ryegrass, Italian ([18]; 31 g ai/ha): 40
Plant response rating, Ryegrass, Italian ([18]; 125 g ai/ha): 90
Plant response rating, Pigweed, Palmer [19, 28]: 100
Plant response rating, Pigweed, Palmer [19, 29]: 100
Plant response rating, Barnyardgrass (0 to 100 scale where 0 is no effect and 100 is complete control) [20]: 98
Plant response rating, Kochia (kochia (Bassia scoparia) [21]; 31 g ai/ha): 100
Plant response rating, Kochia (kochia (Bassia scoparia) [21]; 125 g ai/ha): 100
Plant response rating, Soybean (soybean (Glycine max) [22]; 31 g ai/ha): 0
Plant response rating, Soybean (soybean (Glycine max) [22]; 125 g ai/ha): 0
Plant response rating, Ragweed [23, 28]: 100
Plant response rating, Ragweed [23, 29]: 100
Plant response rating, Blackgrass ([24]; 31 g ai/ha): 0
Plant response rating, Blackgrass ([24]; 125 g ai/ha): 40
Plant response rating, Wheat [25, 28]: 0
Plant response rating, Wheat [25, 29]: 0
Plant response rating, Corn (corn (Zea mays) [26]; 31 g ai/ha): 0
Plant response rating, Corn (corn (Zea mays) [26]; 125 g ai/ha): 0
Plant response rating, Kochia (kochia (Bassia scoparia) [27]; [28]): 90
Plant response rating, Kochia (kochia (Bassia scoparia) [27]; [29]): 100

Cc1ccc2cc3ccc(C)cc3c(-c3c(OCOC(=O)N(C)C)c(Cl)nn(C)c3=O)c2c1 [Compound 18]
Plant response rating, Foxtail, Giant [1, 28]: 0
Plant response rating, Foxtail, Giant [1, 29]: 0
Plant response rating, Ryegrass, Italian [2, 28]: 0
Plant response rating, Ryegrass, Italian [2, 29]: 0
Plant response rating, Corn (corn (Zea mays) [3]; [28]): 0
Plant response rating, Corn (corn (Zea mays) [3]; [29]): 0
Plant response rating, Pigweed, Palmer ([4]; 31 g ai/ha): 0
Plant response rating, Pigweed, Palmer ([4]; 125 g ai/ha): 40
Plant response rating, Foxtail, Giant ([5]; 31 g ai/ha): 0
Plant response rating, Foxtail, Giant ([5]; 125 g ai/ha): 0
Plant response rating, Soybean (soybean (Glycine max) [6]; [28]): 0
Plant response rating, Soybean (soybean (Glycine max) [6]; [29]): 20
Plant response rating, Galium [7, 28]: 0
Plant response rating, Galium [7, 29]: 30
Plant response rating, Goosegrass [8, 28]: 0
Plant response rating, Goosegrass [8, 29]: 0
Plant response rating, Sedge, Umbrella (0 to 100 scale where 0 is no effect and 100 is complete control) [9]: 15
Plant response rating, Goosegrass ([10]; 31 g ai/ha): 0
Plant response rating, Goosegrass ([10]; 125 g ai/ha): 0
Plant response rating, Ragweed ([11]; 31 g ai/ha): 0
Plant response rating, Ragweed ([11]; 125 g ai/ha): 0
Plant response rating, Horseweed [12, 29]: 20
Plant response rating, Oat, Wild ([13]; 31 g ai/ha): 0
Plant response rating, Oat, Wild ([13]; 125 g ai/ha): 0
Plant response rating, Rice (0 to 100 scale where 0 is no effect and 100 is complete control) (rice (Oryza sativa)): 0
Plant response rating, Wheat [14]: 0
Plant response rating, Oat, Wild [15, 28]: 0
Plant response rating, Oat, Wild [15, 29]: 0
Plant response rating, Ducksalad (0 to 100 scale where 0 is no effect and 100 is complete control) [16]: 0
Plant response rating, Blackgrass [17, 28]: 0
Plant response rating, Blackgrass [17, 29]: 0
Plant response rating, Ryegrass, Italian ([18]; 31 g ai/ha): 0
Plant response rating, Ryegrass, Italian ([18]; 125 g ai/ha): 0
Plant response rating, Pigweed, Palmer [19, 28]: 30
Plant response rating, Pigweed, Palmer [19, 29]: 50
Plant response rating, Barnyardgrass (0 to 100 scale where 0 is no effect and 100 is complete control) [20]: 0
Plant response rating, Kochia (kochia (Bassia scoparia) [21]; 31 g ai/ha): 0
Plant response rating, Kochia (kochia (Bassia scoparia) [21]; 125 g ai/ha): 0
Plant response rating, Soybean (soybean (Glycine max) [22]; 31 g ai/ha): 0
Plant response rating, Soybean (soybean (Glycine max) [22]; 125 g ai/ha): 0
Plant response rating, Ragweed [23, 28]: 30
Plant response rating, Ragweed [23, 29]: 100
Plant response rating, Blackgrass ([24]; 31 g ai/ha): 0
Plant response rating, Blackgrass ([24]; 125 g ai/ha): 0
Plant response rating, Wheat [25, 28]: 0
Plant response rating, Wheat [25, 29]: 0
Plant response rating, Corn (corn (Zea mays) [26]; 31 g ai/ha): 0
Plant response rating, Corn (corn (Zea mays) [26]; 125 g ai/ha): 0
Plant response rating, Kochia (kochia (Bassia scoparia) [27]; [28]): 40
Plant response rating, Kochia (kochia (Bassia scoparia) [27]; [29]): 70
